# Earlier results in article PMC10656230, “Disruption of the productive encounter complex results in dysregulation of DIAPH1 activity” (The Journal of Biological Chemistry, 2023).
# Key:
# [1] = test system: DID; conditions: DAD without RRKR motif vs
# Excerpt: Chemical shifts (δ) and cross peak intensities (I) were monitored by using heteronuclear single–quantum coherence (^1H-^15N HSQC) NMR spectroscopy ([38]) (Fig. S1A). […] Negligible perturbations occurred beyond a 1:1 mole ratio, indicating a 1:1 stoichiometry for the complex. […] H ...
# [2] = test system: DID R278E; conditions: DID mutation R278E, no 2- to 3-fold decrease
# Excerpt: (§1) Our findings identify E326 and E327 as critical for binding (Figs. 3D, 4 and S1). The E326 and E327 acidic patch is located greater than 30 Å away from the Rho GTPase binding site and represents a new surface for DIAPH1 regulation (Fig. S4B) ([25]). Interruption of the electrostatic interaction between the basic RRKR motif an ...
# [3] = test system: DID E273K; conditions: DID mutation E273K, no 2- to 3-fold decrease
# Excerpt: as §1
sequence,measurement,setting,value
DETGVMDSLLEALQSGAAFRRKRGPRQAN [DAD],decrease in DID-DAD binding affinity on removal of the RRKR motif of DAD,[1],5 fold
same,decrease in DID-DAD binding affinity,[2],did not
same,decrease in DID-DAD binding affinity,[3],did not
